Measured values published in patent US11629143B2, “HipK4 inhibitors and uses thereof” (Vibliome Therapeutics, LLC, priority 2020, dated 2023).

Experiments:
Experiment in all cases: Kinase panel (mobility shift)
Type in all cases: biochemical
TRKA = TRKA (Homo sapiens, UniProt P04629)
Protocol: (§1) The disclosed compounds were tested for activity against a panel of 299 kinases. The target enzyme was incubated with fluorescently labeled substrate and test compounds in a standardized reaction mixture in 384 well plates. Upon termination of the reaction, samples were introduced onto microfluidic chips. The samples migrated through channels in the chips and product and substrate were separated based on the difference in their charge (electrophoretic mobility shift). Enzyme activity was measured by direct comparison of the fluorescence in the product and substrate peaks. […] In the tables A=95% or greater at 5 um, B=90%-94% at 5 um, and C=80%-89% at 5 um. [note to draft: we included category D for 50-79 and category E is less than 50%. Feel free to remove if not needed)

TAOK3 = molecular target: T1, TAOK3 (Homo sapiens, UniProt Q9H2K8)
T1 sequence (Q9H2K8 1-898): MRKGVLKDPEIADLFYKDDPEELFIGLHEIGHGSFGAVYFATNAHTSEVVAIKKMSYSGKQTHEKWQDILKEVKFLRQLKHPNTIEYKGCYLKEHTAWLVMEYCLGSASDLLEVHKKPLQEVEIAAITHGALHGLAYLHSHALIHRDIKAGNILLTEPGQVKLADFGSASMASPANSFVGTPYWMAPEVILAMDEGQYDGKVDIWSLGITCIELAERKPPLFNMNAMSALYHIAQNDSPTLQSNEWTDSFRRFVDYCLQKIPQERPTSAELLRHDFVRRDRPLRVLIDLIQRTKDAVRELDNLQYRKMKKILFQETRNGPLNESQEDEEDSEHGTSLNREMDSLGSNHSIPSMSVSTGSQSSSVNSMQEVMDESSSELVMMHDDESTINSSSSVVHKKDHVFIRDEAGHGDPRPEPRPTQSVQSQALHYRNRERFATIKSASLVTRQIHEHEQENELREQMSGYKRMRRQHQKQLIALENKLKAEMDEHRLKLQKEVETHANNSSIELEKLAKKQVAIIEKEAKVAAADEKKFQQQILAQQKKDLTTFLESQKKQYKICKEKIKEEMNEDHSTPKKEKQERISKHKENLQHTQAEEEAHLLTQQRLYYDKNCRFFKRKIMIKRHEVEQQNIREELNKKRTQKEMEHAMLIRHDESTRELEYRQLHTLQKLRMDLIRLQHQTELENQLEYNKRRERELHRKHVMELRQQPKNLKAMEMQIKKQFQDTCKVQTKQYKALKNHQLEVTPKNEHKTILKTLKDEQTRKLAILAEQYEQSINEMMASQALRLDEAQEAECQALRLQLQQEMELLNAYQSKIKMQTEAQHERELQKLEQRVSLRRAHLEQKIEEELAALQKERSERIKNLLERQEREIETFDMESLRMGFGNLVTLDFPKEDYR
Protocol: as §1

PDGFR-a = PDGFR-a (Homo sapiens, UniProt P16234)
Chain of PDGFR-a (P16234 24-1089, species assumed): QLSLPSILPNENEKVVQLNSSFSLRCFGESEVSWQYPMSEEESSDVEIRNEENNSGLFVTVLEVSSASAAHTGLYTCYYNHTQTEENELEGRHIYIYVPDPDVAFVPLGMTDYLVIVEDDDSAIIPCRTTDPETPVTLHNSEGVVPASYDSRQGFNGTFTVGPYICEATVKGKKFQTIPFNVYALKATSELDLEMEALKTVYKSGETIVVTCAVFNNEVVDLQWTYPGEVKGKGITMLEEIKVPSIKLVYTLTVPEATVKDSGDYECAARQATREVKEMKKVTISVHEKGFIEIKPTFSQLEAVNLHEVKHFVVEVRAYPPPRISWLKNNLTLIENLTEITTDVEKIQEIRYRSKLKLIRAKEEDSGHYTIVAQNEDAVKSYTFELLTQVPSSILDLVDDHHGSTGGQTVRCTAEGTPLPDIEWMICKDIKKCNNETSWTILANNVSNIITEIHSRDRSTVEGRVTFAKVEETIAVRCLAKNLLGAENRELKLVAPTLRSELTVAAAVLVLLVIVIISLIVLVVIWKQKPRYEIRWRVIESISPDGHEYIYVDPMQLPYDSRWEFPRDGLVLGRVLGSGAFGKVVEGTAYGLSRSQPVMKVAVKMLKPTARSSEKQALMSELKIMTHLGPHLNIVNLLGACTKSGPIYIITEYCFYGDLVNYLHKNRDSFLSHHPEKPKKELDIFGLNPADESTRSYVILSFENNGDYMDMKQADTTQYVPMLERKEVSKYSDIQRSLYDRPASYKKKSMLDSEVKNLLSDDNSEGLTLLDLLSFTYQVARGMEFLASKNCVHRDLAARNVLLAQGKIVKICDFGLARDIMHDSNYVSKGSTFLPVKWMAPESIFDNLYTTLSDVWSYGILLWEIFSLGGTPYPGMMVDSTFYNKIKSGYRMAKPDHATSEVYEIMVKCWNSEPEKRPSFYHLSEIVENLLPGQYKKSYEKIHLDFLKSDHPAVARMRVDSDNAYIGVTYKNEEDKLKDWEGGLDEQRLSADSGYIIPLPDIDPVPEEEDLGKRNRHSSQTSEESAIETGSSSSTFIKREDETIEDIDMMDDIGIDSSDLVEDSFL
Protocol: as §1

EPH-A6 = molecular target: T2, EPH-A6 (Homo sapiens, UniProt Q9UF33)
T2 sequence (Q9UF33 23-1036): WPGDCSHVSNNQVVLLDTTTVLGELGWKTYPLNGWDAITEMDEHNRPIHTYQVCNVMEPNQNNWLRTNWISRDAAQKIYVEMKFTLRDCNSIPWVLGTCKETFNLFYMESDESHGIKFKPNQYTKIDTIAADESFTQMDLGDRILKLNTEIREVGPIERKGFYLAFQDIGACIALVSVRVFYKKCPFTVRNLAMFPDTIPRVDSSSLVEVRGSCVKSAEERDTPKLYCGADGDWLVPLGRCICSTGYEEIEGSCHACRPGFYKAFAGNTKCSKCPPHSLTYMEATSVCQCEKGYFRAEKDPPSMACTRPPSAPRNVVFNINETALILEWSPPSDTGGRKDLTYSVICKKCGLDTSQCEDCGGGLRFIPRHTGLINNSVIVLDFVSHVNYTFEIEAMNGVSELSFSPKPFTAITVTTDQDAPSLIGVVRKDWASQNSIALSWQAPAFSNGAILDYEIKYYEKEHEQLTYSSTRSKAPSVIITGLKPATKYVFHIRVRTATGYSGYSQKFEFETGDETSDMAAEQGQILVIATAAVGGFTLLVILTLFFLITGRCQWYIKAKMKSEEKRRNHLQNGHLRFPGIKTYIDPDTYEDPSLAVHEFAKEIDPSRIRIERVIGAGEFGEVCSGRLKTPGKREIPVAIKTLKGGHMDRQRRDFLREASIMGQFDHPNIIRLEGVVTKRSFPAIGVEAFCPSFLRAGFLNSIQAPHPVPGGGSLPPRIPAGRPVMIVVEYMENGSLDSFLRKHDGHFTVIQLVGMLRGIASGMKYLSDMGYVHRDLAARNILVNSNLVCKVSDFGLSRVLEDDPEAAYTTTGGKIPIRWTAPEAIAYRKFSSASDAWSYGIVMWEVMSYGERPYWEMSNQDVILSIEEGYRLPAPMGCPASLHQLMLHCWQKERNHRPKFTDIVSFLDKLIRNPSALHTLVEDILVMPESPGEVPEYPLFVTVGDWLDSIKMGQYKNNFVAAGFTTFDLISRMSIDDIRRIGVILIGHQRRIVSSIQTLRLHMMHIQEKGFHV
Protocol: as §1

TRKB = TRKB (Homo sapiens, UniProt Q16620)
Chain of TRKB (Q16620 32-822, species assumed): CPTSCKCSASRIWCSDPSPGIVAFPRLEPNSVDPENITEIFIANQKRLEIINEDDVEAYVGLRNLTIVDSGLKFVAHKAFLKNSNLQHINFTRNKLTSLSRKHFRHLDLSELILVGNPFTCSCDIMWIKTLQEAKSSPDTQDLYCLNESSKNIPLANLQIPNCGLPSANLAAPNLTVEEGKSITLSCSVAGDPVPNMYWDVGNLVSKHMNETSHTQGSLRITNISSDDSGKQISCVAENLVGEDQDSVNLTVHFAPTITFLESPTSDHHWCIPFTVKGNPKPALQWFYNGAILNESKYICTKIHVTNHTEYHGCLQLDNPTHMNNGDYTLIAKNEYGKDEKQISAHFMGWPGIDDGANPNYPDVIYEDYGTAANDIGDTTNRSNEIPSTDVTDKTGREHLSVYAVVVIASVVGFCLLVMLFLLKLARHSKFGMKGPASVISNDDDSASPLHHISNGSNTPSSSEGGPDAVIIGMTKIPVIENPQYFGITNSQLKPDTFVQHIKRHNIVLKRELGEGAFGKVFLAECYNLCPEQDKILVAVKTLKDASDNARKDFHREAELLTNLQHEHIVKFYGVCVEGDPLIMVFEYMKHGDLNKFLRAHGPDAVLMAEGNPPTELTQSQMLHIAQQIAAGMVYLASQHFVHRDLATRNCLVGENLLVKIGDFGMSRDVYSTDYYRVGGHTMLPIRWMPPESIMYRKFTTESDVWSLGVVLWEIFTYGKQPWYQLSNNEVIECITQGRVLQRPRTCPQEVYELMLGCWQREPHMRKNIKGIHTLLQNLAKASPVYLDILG
Protocol: as §1

Chain of TRKA (P04629 33-796, species assumed): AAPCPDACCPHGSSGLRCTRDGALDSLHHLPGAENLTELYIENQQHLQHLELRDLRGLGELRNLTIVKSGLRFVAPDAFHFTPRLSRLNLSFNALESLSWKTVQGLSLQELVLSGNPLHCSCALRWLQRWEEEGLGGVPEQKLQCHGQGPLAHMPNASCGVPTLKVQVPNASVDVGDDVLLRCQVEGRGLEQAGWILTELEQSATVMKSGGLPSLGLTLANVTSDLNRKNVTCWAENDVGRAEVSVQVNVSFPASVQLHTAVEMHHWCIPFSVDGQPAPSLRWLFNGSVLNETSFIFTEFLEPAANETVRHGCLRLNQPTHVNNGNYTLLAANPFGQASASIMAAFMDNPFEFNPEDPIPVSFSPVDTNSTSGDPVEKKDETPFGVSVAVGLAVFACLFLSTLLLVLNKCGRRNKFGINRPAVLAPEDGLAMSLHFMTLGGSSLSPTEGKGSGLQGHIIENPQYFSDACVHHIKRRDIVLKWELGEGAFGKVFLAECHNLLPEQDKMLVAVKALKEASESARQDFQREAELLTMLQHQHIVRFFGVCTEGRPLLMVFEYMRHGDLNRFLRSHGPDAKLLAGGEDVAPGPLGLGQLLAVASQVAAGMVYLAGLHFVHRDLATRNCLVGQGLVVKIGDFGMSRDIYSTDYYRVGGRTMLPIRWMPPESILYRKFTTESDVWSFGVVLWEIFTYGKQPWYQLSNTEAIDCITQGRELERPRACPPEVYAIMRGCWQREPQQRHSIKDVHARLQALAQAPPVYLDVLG

Row | inhibition at 5 µM (TRKA) [%] | inhibition at 5 µM (TAOK3) [%] | inhibition at 5 µM (PDGFR-a) [%] | inhibition at 5 µM (EPH-A6) [%] | inhibition at 5 µM (TRKB) [%] | Compound
1 | 50 to 79 | 50 to 79 | < 50 | 90 to 94 | < 50 | CNC(=O)c1cc(Oc2ccc(NC(=O)c3nc(OC4CC4)oc3-c3ccc(F)cc3)cc2F)ccn1 [Compound 32]
2 | 50 to 79 | 50 to 79 | < 50 | 50 to 79 | < 50 | [2H]C([2H])([2H])NC(=O)c1cc(Oc2ccc(NC(=O)c3nc(SC)oc3-c3ccc(F)c(F)c3)cc2F)ccn1 [Compound 33]
3 | 80 to 89 | 80 to 89 | < 50 | 90 to 94 | 50 to 79 | CNC(=O)c1cc(Oc2ccc(NC(=O)c3nc(SC(C)C)oc3-c3ccc(F)cc3)cc2F)ccn1 [Compound 34]
4 | < 50 | < 50 | < 50 | 50 to 79 | < 50 | [2H]C([2H])([2H])NC(=O)c1cc(Oc2ccc(NC(=O)c3nc(SC)oc3-c3ccc(F)s3)cc2F)ccn1 [Compound 35]
5 | < 50 | < 50 | < 50 | 50 to 79 | < 50 | CNC(=O)c1ccc(Oc2ccc(NC(=O)c3nc(Cl)oc3-c3ccc(F)cc3)c(F)c2)cn1 [Compound 36]
6 | < 50 | < 50 | < 50 | < 50 | < 50 | CSc1nc(C(=O)Nc2ccc(Oc3ccnc(C(=O)NC4COC4)c3)c(F)c2)c(-c2ccc(F)c(F)c2)o1 [Compound 37]
7 | 50 to 79 | < 50 | < 50 | 80 to 89 | < 50 | CNC(=O)c1cc(Oc2ccc(NC(=O)c3nc(OCC(F)(F)F)oc3-c3ccc(F)cc3)cc2F)ccn1 [Compound 38]
8 | < 50 | < 50 | < 50 | 80 to 89 | < 50 | COc1nc(C(=O)Nc2ccc(Oc3ccnc(C(=O)NC4COC4)c3)c(F)c2)c(-c2ccc(F)cc2)o1 [Compound 39]
9 | < 50 | < 50 | < 50 | < 50 | < 50 | CSc1nc(C(=O)Nc2ccc(Oc3ccnc(C(=O)NCC(F)(F)F)c3)c(F)c2)c(-c2ccc(F)cc2)o1 [Compound 40]
10 | < 50 | 50 to 79 | < 50 | 80 to 89 | < 50 | CSc1nc(C(=O)Nc2ccc(Oc3ccnc(C(=O)NCCN(C)C)c3)c(F)c2)c(-c2ccc(F)cc2)o1 [Compound 41]
11 | < 50 | < 50 | < 50 | 50 to 79 | < 50 | CSc1nc(C(=O)Nc2ccc(Oc3ccnc(C(=O)NC4CCN(C)CC4)c3)c(F)c2)c(-c2ccc(F)cc2)o1 [Compound 42]
12 | < 50 | < 50 | < 50 | < 50 | < 50 | COc1nc(C(=O)Nc2ccc(Oc3ccnc(C(=O)NCC(F)(F)F)c3)c(F)c2)c(-c2ccc(F)cc2)o1 [Compound 43]
